The text below walks through data of article PMC7814697 (The Journal of organic chemistry, 2019).

Broadly, the MIC is the least concentration at which growth counts as inhibited.

Assay [1] relates to Bacillus subtilis ATCC 6051. Put plainly: Minimum inhibitory concentration. The format is cell-based. The note with it: ATCC6051, read-out: MIC, Bacillus subtilis ATCC 6051.
Assay [2] has as its system Gram-positive bacteria (S. aureus, S. epidermidis, and B. subtilis). Nature of the assay: MIC assays summarised across the Gram-positive bacteria. The format is cell-based. The note with it: MIC without versus with 0.002% polysorbate 80.

≈ marks a conversion by molar mass, not a printed value.

For `CN[C@H](CC(C)C)C(=O)N[C@H]1C(=O)N[C@@H](CC(N)=O)C(=O)N[C@H]2C(=O)N[C@H]3C(=O)N[C@H](C(=O)N[C@H](C(=O)O)c4cc(O)cc(O)c4-c4cc3ccc4O)[C@H](O)c3ccc(c(Cl)c3)Oc3cc2cc(c3O[C@@H]2O[C@H](CO)[C@@H](O)[C@H](O)[C@H]2O[C@H]2C[C@](C)(N)[C@H](O)[C@H](C)O2)Oc2ccc(cc2Cl)[C@H]1O` [vancomycin], in assay [1], the minimal inhibitory concentration (MIC) is 0.5 µg/mL (≈ 0.345 µM). The “decrease in the MIC with 0.002% polysorbate 80” value in assay [2] is “modest two-fold decrease”.
